This note sets out measurements from patent US10617662B2, “Autophagy activation-induced compound for improving skin inflammation for aging” (INCOSPHARM CORPORATION, priority 2017, dated 2020).

Data set [1] has as its system KLK7 (Kallikrein-related peptidase 7). The data set can be described thus: RT-PCR of psoriasis-related gene KLK7. As to conditions: HEKa cells, 20 uM, FIGS. 2 and 3. It counts as cell-based, human. On the procedure:
(§1) A psoriasis-related genes were selected from the cDNA array result in which Compound 8 of the present invention was treated in HaCaT cells. In order to analyze whether Compound 8 has an effect on psoriasis alleviation, RT-PCR analysis for IL-36′ (interleukin 36 gamma), KLK7 (Kallikrein-related peptidase 7), OASL (2′-5′-Oligoadenylate Synthetase Like) and ALOX12B (Arachidonate 12-lipoxygenase, 12R type) which are very closely related to psoriasis was carried out. Further, KRT16 (Keratin 16), KRT6 (Keratin 6) and KRT1 (Keratin 1), known as psoriasis-related proliferation, differentiation markers were confirmed by a western blot analysis. As the specific experimental method, HEKa cells (Human Epidermal keratinocytes, adult), human-derived epidermal keratinocytes were seeded on a 24 well plate at a density of 1×10^5 cells, and cultured in an EpiLife medium (1× Human keratinocyte Growth supplement, 1× antibiotics) in an incubator under 37° C. and 5% CO2 for 24 hours. […]

Data set [2] has as its system STAT3 (Signal transducer and activator of transcription 3). The data set can be described thus: Expression of psoriasis-related transcription factor STAT3 in induced inflammatory condition. Format: cell-based, human. As to conditions: IL-17A/TNFα- or IL-17A/IFNγ-induced inflammatory condition.
For data set [3], the system named is ULK-1 (Serine/threonine-protein kinase-1). Description: Western blot for ULK-1 protein. It counts as cell-based, human. The conditions noted are these: HaCaT cells; 20 uM dilution, 1 ml added to 1 ml medium; FIG. 1. On the procedure:
(§2) In order to analyze which gene expression is related to increased autophagy activation by Compound 8 of the present invention, a western blot analysis for Beclin-1 and ULK-1 (Serine/threonine-protein kinase-1) proteins which are closely related to autophagy activation was performed.
(§3) As a specific experimental method, HaCaT cells, human-derived keratinocytes were seeded on a 60Ø dish at a density of 3×10^5 cells, and cultured in DMEM (Dulbecco's Modified Eagle Media, Gibco BRL) in an incubator under 37° C. and 5% CO2 for 24 hours. Compound 8 of the present invention was dissolved in DMSO at a concentration of 10 mM each to be a concentrate, and diluted with a medium to be at a concentration of 20 uM. Then in a state where 1 ml of medium was first in each well, 1 ml of each diluted solution was added thereto for treatment, and cultured for a certain period, and after completing the culturing, the medium was removed, and then cells were disrupted with a SDS sample buffer, and each protein was separated by SDS-PAGE gel electrophoresis, and transferred to a PVDF membrane. […]

Data set [4] deals with Tbet (T-box transcription factor). Description: Expression of psoriasis-related transcription factor Tbet in induced inflammatory condition. The conditions noted are these: IL-17A/TNFα- or IL-17A/IFNγ-induced inflammatory condition. It counts as cell-based, human. How it is done: [The source words this procedure for another target and says it was used here with some conditions changed.] as §1

Data set [5] relates to CCL20 (Chemokine (C-C motif) ligand 20). Description: Cytokine gene expression, CCL20, IL-17A/TNF-α condition. It counts as cell-based, human. The conditions noted are these: FIG. 9.
The subject of the next data set is Beclin-1. Description: Western blot for Beclin-1 protein. Format: cell-based, human. As to conditions: HaCaT cells; 20 uM dilution, 1 ml added to 1 ml medium; FIG. 1. How it is done: as §2, §3
The test system of data set [6] is OASL (2′-5′-Oligoadenylate Synthetase Like). Description: RT-PCR of psoriasis-related gene OASL. It counts as cell-based, human. The conditions noted are these: HEKa cells, 20 uM, FIGS. 2 and 3. How it is done:
as §1

A short description of data set [7]: Psoriasis animal model, weight change. Format: in vivo, BALB/c mice. As to conditions: topical treatment, FIG. 16. On the procedure:
In order to confirm the psoriasis treatment effect by Compound 8 of the present invention, dorsal hair of 8-week-old BALB/c mice (female) was removed using hair removal cream (Veet®, Oxy Reckitt Benckiser, Cedex, France), and subsequently imiquimod 5% cream (Aldara®; 3M Pharmaceuticals, UK; 62.5 mg) was applied on the back and both ears of the mice twice in the morning and in the afternoon (Sensitization; Day 0). Then, after a barrier recovery period of 2 days, imiquimod 5% cream (62.5 mg/day) was applied repeatedly for 7 days (Induction stage; Day 2 -Day 8), thereby inducing the psoriasis animal model.
After inducing the psoriasis animal model, Compound 8 of the present invention dissolved in ethanol (0.5%) and cream containing Compound 8 of the present invention (The same composition as that of the cosmetic composition of Example 14 except that it contained 0.5% by weight of Compound 8) were applied on the back once in the morning for 5 days (Treatment Stage; Day 8-Day 12). An untreated control group and a disease control group (vehicle) were treated with cream not containing Compound 8 of the present invention (cosmetic composition of Comparative Example 2) and ethanol, and during the treatment period, imiquimod 5% cream was applied thereon every other day, thereby maintaining psoriasis.

Data set [8] relates to IL-36γ (interleukin 36, gamma). Description: Cytokine gene expression, IL-36γ, IL-17A/TNF-α condition. It counts as cell-based, human. The conditions noted are these: FIG. 9.
The subject of a further data set is Foxp3 (forkhead box P3). The data set can be described thus: Expression of psoriasis-related transcription factor Foxp3 in induced inflammatory condition. Format: cell-based, human. As to conditions: IL-17A/TNFα- or IL-17A/IFNγ-induced inflammatory condition. How it is done:
[The source words this procedure for another target and says it was used here with some conditions changed.] as §1

The subject of a further data set is IL-20 (interleukin-20). The data set can be described thus: Cytokine gene expression, IL-20, TNFα/IFN-γ induced inflammatory condition. Format: cell-based, human. As to conditions: FIG. 8.
The subject of a further data set is KRT16 (Keratin 16). Description: Western blot of proliferative marker KRT16. The conditions noted are these: FIG. 4. It counts as cell-based, human. How it is done:
as §1

Molecules are shown by their SMILES.

Turning to `CCCCCCCCCCCCCCCC(=O)NCCCC[C@H](NC(=O)[C@H](CCCCN(CC(=O)O)CC(=O)O)N(CC(=O)O)CC(=O)O)C(=O)O` [Compound 8], the “expression level of KLK7 gene” value in data set [1] is “significantly decreased”. Further, the “expression level of STAT3” value in data set [2] is reported as “reduced”. Further, the “expression of ULK-1 protein” value in data set [3] is “significantly increased”. In addition, the “expression level of Tbet” value in data set [4] is given as “reduced”. Further, in data set [5], the “expression level of CCL20” value is reported as “reduced”. The “expression of Beclin-1 protein” value with Beclin-1 is recorded as “significantly increased”. In data set [6], the “expression level of OASL gene” value is “significantly decreased”. Moreover, in [7], the “weight change after treatment” value is “almost similar to those of the control group”. The “expression level of IL-36γ” value in [8] is reported as “reduced”. In addition, the “expression level of Foxp3” value in the data set with Foxp3 (forkhead box P3) was “reduced”. For the same molecule, the “expression level of IL-20” value with IL-20 (interleukin-20) was “reduced”. Besides, the “KRT16 (proliferative marker) level” value in the data set on KRT16 (Keratin 16) is on record as “reduced”.
